Source: US8952169B2 (Genentech, Inc., priority 2012, dated 2015)

Columns and labels:
hNav1.7 [1] = biological target: T1, hNav1.7 (Homo sapiens (Human), UniProt Q15858); assay: Tritiated aryl sulfonamide binding to membranes from cells expressing hNav1.7 and the β1 subunit (competitive binding); settings: read-out: NaV1.7 395 Memb Binding (IC50)
Method in brief: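 Competitive displacement of 100 μM [3H]-labelled tritiated aryl sulfonamide from hNav1.7/β1 membranes, 18 h at room temperature in 100 mM NaCl, 20 mM Tris HCl pH 7.4. Non-specific binding defined with 1 μM unlabelled compound. Filter-bound radioactivity measured by liquid scintillation counting.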

hNav1.5 = hNav1.5 (Homo sapiens (Human), UniProt Q14524); assay: Patch voltage clamp electrophysiology (PatchXpress), HEK-293 cells, inactivated state block; settings: read-out: EP_PX 293 hNav1.5 (IC50), β1 coexpressed, holding −60 mV;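 note: control was the sodium current recorded in 0.5% DMSO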
hNav1.5, sequence (Q14524 whole entry): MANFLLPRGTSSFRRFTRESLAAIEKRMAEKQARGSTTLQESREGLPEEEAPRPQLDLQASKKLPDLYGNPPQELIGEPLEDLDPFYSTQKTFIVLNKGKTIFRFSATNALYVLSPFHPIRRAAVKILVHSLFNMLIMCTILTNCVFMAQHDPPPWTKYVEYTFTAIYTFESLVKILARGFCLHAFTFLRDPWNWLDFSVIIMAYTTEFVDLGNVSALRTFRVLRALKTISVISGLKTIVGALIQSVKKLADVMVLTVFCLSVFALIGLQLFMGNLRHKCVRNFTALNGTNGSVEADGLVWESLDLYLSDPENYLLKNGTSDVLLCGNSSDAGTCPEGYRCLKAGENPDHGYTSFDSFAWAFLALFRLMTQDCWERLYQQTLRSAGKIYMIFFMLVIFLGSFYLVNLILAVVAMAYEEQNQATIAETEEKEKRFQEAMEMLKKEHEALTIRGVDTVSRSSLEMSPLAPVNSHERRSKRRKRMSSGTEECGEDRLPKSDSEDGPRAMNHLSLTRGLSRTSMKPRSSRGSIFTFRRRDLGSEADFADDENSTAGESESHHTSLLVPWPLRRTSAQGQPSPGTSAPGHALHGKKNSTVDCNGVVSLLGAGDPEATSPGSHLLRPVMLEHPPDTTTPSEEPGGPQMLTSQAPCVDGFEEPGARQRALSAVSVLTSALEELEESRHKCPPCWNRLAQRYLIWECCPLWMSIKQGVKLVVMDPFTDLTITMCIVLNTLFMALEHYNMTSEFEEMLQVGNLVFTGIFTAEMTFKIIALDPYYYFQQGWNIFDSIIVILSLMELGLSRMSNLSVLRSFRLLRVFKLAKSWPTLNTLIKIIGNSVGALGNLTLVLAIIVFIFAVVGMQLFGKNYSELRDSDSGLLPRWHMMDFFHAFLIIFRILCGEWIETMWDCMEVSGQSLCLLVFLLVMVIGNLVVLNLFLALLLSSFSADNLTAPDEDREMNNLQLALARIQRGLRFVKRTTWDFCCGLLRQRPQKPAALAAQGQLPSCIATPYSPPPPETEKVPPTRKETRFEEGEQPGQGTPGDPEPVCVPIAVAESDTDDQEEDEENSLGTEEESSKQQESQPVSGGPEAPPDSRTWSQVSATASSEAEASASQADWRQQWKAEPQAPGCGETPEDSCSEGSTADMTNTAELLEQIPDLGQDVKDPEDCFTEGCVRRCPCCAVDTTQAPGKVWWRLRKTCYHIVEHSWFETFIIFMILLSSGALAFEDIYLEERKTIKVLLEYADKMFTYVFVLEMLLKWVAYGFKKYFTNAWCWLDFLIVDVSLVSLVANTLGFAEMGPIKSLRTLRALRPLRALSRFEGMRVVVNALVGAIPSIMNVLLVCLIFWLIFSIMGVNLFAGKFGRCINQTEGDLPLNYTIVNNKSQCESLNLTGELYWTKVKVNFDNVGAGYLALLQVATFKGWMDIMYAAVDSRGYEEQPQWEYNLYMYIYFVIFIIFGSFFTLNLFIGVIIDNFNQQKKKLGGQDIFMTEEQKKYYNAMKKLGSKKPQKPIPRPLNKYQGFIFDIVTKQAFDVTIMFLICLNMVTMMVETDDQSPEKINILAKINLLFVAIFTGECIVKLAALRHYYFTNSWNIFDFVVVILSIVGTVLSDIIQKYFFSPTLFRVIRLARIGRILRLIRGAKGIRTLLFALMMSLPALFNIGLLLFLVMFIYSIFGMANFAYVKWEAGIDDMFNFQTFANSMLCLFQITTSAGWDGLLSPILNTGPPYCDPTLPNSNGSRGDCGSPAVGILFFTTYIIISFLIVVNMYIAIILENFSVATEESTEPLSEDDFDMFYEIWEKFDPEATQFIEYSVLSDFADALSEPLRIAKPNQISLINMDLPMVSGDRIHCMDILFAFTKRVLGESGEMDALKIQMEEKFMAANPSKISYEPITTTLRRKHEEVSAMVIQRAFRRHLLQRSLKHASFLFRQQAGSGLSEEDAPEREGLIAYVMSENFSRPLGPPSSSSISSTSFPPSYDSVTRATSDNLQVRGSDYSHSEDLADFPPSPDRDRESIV

hNav1.7 [2] = biological target: T1, hNav1.7; assay: as above; format: cell-based; settings: read-out: EP_PX 293 hNav1.7 (IC50)
[3] = membranes with hNav1.7 and β1 subunit, [3H]compound displacement, 18 h, room temperature
[4] = HEK-293 cells, β1 coexpressed, inactivated state, holding −60 mV

T1 sequence (Q15858 whole entry, looked up): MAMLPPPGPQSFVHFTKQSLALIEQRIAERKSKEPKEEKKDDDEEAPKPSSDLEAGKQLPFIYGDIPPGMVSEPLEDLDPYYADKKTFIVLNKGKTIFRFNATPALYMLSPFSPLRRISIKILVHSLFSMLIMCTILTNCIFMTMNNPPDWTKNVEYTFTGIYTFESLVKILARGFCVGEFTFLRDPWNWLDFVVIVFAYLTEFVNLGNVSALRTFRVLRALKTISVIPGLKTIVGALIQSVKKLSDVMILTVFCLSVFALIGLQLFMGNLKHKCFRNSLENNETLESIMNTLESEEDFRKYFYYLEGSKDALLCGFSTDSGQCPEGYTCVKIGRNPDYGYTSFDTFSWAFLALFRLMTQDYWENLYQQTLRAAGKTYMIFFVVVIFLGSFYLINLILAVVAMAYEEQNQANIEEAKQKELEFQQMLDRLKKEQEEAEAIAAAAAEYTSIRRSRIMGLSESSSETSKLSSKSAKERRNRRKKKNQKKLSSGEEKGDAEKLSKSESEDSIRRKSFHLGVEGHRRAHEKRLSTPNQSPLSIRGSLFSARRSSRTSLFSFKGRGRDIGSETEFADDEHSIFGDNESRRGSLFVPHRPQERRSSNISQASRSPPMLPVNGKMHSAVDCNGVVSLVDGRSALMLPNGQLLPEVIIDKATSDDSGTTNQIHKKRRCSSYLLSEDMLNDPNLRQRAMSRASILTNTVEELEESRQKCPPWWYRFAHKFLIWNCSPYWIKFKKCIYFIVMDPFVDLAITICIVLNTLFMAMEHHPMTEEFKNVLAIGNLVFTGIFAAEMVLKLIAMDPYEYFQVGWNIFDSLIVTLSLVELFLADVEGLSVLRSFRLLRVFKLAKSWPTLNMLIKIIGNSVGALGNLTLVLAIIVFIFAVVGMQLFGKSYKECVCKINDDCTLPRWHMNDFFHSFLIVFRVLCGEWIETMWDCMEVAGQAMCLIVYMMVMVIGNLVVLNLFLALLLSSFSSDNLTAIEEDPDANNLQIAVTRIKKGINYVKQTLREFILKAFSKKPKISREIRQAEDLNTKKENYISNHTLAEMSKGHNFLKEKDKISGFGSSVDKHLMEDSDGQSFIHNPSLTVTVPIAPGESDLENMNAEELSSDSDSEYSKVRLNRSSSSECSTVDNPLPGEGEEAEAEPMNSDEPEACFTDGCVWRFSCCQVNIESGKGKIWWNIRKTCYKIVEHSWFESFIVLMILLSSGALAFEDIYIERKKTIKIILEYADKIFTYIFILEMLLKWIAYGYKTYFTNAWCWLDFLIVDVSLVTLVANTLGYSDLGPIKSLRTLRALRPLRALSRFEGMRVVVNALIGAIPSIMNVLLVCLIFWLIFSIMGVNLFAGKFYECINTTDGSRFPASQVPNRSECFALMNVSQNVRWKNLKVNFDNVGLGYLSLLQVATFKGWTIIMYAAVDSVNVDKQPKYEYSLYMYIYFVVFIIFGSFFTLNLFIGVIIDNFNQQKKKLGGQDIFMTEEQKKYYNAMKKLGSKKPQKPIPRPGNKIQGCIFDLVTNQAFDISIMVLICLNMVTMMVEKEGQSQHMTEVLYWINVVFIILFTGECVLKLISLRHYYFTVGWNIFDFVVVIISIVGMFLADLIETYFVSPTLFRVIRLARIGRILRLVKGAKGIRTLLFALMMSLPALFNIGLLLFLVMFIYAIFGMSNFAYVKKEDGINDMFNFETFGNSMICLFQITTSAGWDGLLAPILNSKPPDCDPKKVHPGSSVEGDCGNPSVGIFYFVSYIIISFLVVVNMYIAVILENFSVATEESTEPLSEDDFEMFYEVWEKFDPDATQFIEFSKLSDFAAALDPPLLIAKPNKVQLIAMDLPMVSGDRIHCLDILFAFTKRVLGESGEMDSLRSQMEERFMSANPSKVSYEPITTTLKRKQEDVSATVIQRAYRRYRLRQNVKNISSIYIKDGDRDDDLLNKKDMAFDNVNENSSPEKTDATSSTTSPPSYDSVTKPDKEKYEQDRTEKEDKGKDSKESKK
T1 sequence (Q07699 whole entry partner, looked up): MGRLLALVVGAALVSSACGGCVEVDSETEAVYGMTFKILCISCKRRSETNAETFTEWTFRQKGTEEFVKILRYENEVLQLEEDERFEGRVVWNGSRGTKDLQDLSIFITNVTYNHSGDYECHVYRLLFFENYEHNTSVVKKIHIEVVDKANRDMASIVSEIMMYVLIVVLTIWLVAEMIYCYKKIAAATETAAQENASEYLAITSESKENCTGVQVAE

IC50 (hNav1.7 [1]; [3]) [µM] | IC50 (hNav1.7 [2]; [4]) [µM] | Structure (SMILES) | IC50 (hNav1.5) [µM] | IC50 (hNav1.7 [2]) [µM] | IC50 (hNav1.7 [1]) [µM]
0.535 | – | CN(C)S(=O)(=O)NC(=O)c1cc(Cl)c(OC2CC3CC2C2CCCC32)cc1F (centres unmarked) | 7.82 | – | –
0.009 | 0.0036 | CS(=O)(=O)NC(=O)c1cc(Cl)c(OCC2CC3C4CCC(C4)C3C2)cc1F (centres unmarked) | 0.743 | – | –
– | – | O=C(NS(=O)(=O)C1CC1)c1cc(Cl)c(OCC23CC4CC(CC(C4)C2)C3)cc1F | 0.427 | – | –
0.01 | – | O=C(NS(=O)(=O)N1CC[C@H](O)C1)c1cc(C2CC2)c(OCC23CC4CC(CC(C4)C2)C3)cc1F | 0.11 | – | –
0.001 | – | O=C(NS(=O)(=O)N1CC(F)C1)c1cc(C2CC2)c(OCC23CC4CC(CC(C4)C2)C3)cc1F | 0.422 | – | –
0.01 | – | O=C(NS(=O)(=O)N1CC(F)(F)C1)c1cc(C2CC2)c(OCC23CC4CC(CC(C4)C2)C3)cc1F | 0.326 | – | –
– | – | CS(=O)(=O)NC(=O)c1cc(C2CC2)c(OCC2CCC(F)(F)CC2)cc1F | 5.23 | – | –
0.023 | 0.0092 | O=C(NS(=O)(=O)NCCCO)c1cc(C2CC2)c(OCC23CC4CC(CC(C4)C2)C3)cc1F | 0.022 | – | –
0.003 | 0.0249 | COC1CN(S(=O)(=O)NC(=O)c2cc(C3CC3)c(OCC34CC5CC(CC(C5)C3)C4)cc2F)C1 | 0.144 | – | –
– | – | O=C(NS(=O)(=O)N1CCC1)c1cc(C2CC2)c(OCC2CCCCC2)cc1F | 0.04 | 0.001 | 0.006
– | – | COCCS(=O)(=O)NC(=O)c1cc(C2CC2)c(OCC2CCCCC2)cc1F | 0.14 | – | –
0.001 | 0.009 | O=C(NS(=O)(=O)N1CCC1)c1cc(C2CC2)c(OCC2C3CC4CC(C3)CC2C4)cc1F (centres unmarked) | 0.13 | – | –
0.014 | 0.02 | CS(=O)(=O)NC(=O)c1cc(C2CC2)c(OCC23CC4(F)CC(F)(CC(F)(C4)C2)C3)cc1F | 3.5 | – | –
0.006 | 0.008 | O=C(NS(=O)(=O)C1CC1)c1cc(C2CC2)c(OCC2CCC(F)(F)CC2)cc1F | 0.63 | – | –
0.005 | 0.02 | O=C(NS(=O)(=O)C1CC1)c1cc(C2CC2)c(OCC23CC4(F)CC(F)(CC(F)(C4)C2)C3)cc1F | 0.43 | – | –
0.004 | 0.002 | O=C(NS(=O)(=O)N1CCC1)c1cc(C2CC2)c(OCC2(C(F)(F)F)CCCC2)cc1F | 0.09 | – | –
0.003 | 0.008 | O=C(NS(=O)(=O)C1CC1)c1cc(C2CC2)c(OCC23CC4CC(C2)C(F)(F)C(C4)C3)cc1F | 0.13 | – | –
0.006 | 0.002 | O=C(NS(=O)(=O)N1CCC1)c1cc(C2CC2)c(OCC23CCCCC2C3)cc1F (centres unmarked) | 0.16 | – | –
0.29 | 0.063 | O=C(NS(=O)(=O)N1CCC1)c1cnc(OCC23CC4CC(CC(C4)C2)C3)c(C2CC2)c1 | 7.5 | – | –
0.72 | 0.37 | COCCS(=O)(=O)NC(=O)c1cnc(OCC23CC4CC(CC(C4)C2)C3)c(C2CC2)c1 | 15.3 | – | –
0.072 | 0.0179 | CS(=O)(=O)NC(=O)c1cnc(OCC23CC4CC(CC(C4)C2)C3)c(C2CC2)c1 | 2.58 | – | –
0.007 | 0.0107 | O=C(NS(=O)(=O)N1CC(O)C1)c1cc(C2CC2)c(OCC23CC4CC(CC(C4)C2)C3)cc1F | 0.0606 | – | –
0.051 | 0.0076 | CS(=O)(=O)NC(=O)c1ccc(OCC23CC4CC(CC(C4)C2)C3)c(Br)c1 | 1.95 | – | –
0.012 | – | CC1(C)[C@H]2CC[C@H](COc3cc(F)c(C(=O)NS(C)(=O)=O)cc3Cl)[C@@H]1C2 | 1.07 | – | –

IC50 (hNav1.7 [1]; [3]) [µM] | IC50 (hNav1.7 [2]; [4]) [µM] | Structure (SMILES) | IC50 (hNav1.5) [µM] | IC50 (hNav1.7 [2]) [µM] | IC50 (hNav1.7 [1]) [µM]
0.003 | 0.00131 | CS(=O)(=O)NC(=O)c1ccc(OCC23CC4CC(CC(C4)C2)C3)c(C2CC2)c1 | 0.7 | – | –
0.221 | 0.0531 | CN(C)S(=O)(=O)NC(=O)c1cc(Cl)c(OCC23CC4CC(C2)C(F)(F)C(C4)C3)cc1F [Example 92] | 3.76 | – | –
0.016 | 0.12 | CC1(C)CCCC(Oc2cc(F)c(C(=O)NS(=O)(=O)N3CCC3)cc2C2CC2)C1 (centres unmarked) [Example 357] | – | – | –
0.012 | 0.062 | CC1(C)CCCC(Oc2cc(F)c(C(=O)NS(C)(=O)=O)cc2C2CC2)C1 (centres unmarked) [Example 358, 5-cyclopropyl-4-((3,3-dimethylcyclohexyl)oxy)-2-fluoro-N-(methylsulfonyl)benzamide] | – | – | –
0.007 | 0.011 | CC1CCCCC1COc1cc(F)c(C(=O)NS(=O)(=O)N2CCC2)cc1C1CC1 (centres unmarked) [Example 372] | – | – | –
0.02 | 0.03 | O=C(NS(=O)(=O)N1CCC1)c1cc(C2CC2)c(OCC2CC=C(Cl)CC2)cc1F (centres unmarked) [Example 376] | – | – | –
0.008 | 0.084 | O=C(NS(=O)(=O)N1CCC1)c1cc(C2CC2)c(OCC2CCC(Cl)(Cl)CC2)cc1F [Example 377] | – | – | –
0.004 | 0.08 | CS(=O)(=O)NC(=O)c1cc(C2CC2(F)F)c(OCC23CC4CC(CC(C4)C2)C3)cc1F (centres unmarked) [Example 380] | – | – | –
0.005 | 0.003 | O=C(NS(=O)(=O)C1CC1)c1cc(C2CC2)c(OCC2CCC3CC3C2)cc1F (centres unmarked) [Example 392] | – | – | –
0.032 | 0.2 | CC1CCCC(C)C1COc1cc(F)c(C(=O)NS(=O)(=O)C2CC2)cc1Cl (centres unmarked) [Example 397] | – | – | –
0.02 | 0.097 | CCS(=O)(=O)NC(=O)c1cc(Cl)c(OCC2CCC3(CC2)CC3)cc1F [Example 400] | – | – | –
0.022 | 0.3 | CS(=O)(=O)NC(=O)c1cc(C2CC2)c(OCC2CCCC(F)(F)C2)cc1F (centres unmarked) [Example 402] | – | – | –
0.09 | 0.91 | CNS(=O)(=O)NC(=O)c1cc(C2CC2)c(OCC2CCCC(F)(F)C2)cc1F (centres unmarked) [Example 403] | – | – | –
0.023 | 0.057 | O=C(NS(=O)(=O)N1CCC1)c1cc(C2CC2)c(OCC2CCCC(F)(F)C2)cc1F (centres unmarked) [Example 404] | – | – | –
0.002 | 0.051 | CC1(COc2cc(F)c(C(=O)NS(=O)(=O)C3CC3)cc2C2CC2)CCC(C(F)(F)F)CC1 (centres unmarked) [Example 426, 5-cyclopropyl-N-cyclopropylsulfonyl-2-fluoro-4-[[1-methyl-4-(trifluoromethyl)cyclohexyl]methoxy]benzamide] | – | – | –
0.003 | 0.13 | CC1(COc2cc(F)c(C(=O)NS(=O)(=O)N3CCC3)cc2C2CC2)CCC(C(F)(F)F)CC1 (centres unmarked) [Example 427, N-(azetidin-1-ylsulfonyl)-5-cyclopropyl-2-fluoro-4-[[1-methyl-4-(trifluoromethyl)cyclohexyl]methoxy]benzamide] | – | – | –
0.004 | 0.012 | O=C(NS(=O)(=O)C1CC1)c1cc(C2CC2)c(OCC2CCC(C(F)(F)F)CC2)cc1F (centres unmarked) [Example 428, 5-cyclopropyl-N-cyclopropylsulfonyl-2-fluoro-4-[[4-(trifluoromethyl)cyclohexyl]methoxy]benzamide] | – | – | –
0.008 | 0.1 | O=C(NS(=O)(=O)N1CCC1)c1cc(C2CC2)c(OCC2CCC(C(F)(F)F)CC2)cc1F (centres unmarked) [Example 429, N-(azetidin-1-ylsulfonyl)-5-cyclopropyl-2-fluoro-4-[[4-(trifluoromethyl)cyclohexyl]methoxy]benzamide] | – | – | –
0.003 | 0.01 | O=C(NS(=O)(=O)C1CC1)c1cc(C2CC2)c(OCC23CCCCC2C3(F)F)cc1F (centres unmarked) [Example 430, 5-cyclopropyl-N-cyclopropylsulfonyl-4-[(7,7-difluoronorcaran-1-yl)methoxy]-2-fluoro-benzamide] | – | – | –
0.013 | 0.01 | O=C(NS(=O)(=O)N1CCC1)c1cc(C2CC2)c(OCC23CCCCC2C3(F)F)cc1F (centres unmarked) [Example 431, N-(azetidin-1-ylsulfonyl)-5-cyclopropyl-4-[(7,7-difluoronorcaran-1-yl)methoxy]-2-fluoro-benzamide] | – | – | –
0.022 | 0.032 | O=C(NS(=O)(=O)N1CCC1)c1cc(C2CC2)c(OCC2CCC3CC3C2)cc1F (centres unmarked) [Example 432, N-(azetidin-1-ylsulfonyl)-5-cyclopropyl-2-fluoro-4-(norcaran-3-ylmethoxy)benzamide] | – | – | –
0.011 | 0.014 | CS(=O)(=O)NC(=O)c1cc(C2CC2)c(OCC2CN(C(c3ccccc3)c3ccccc3)C2)cc1F [Example 440, 4-((1-benzhydrylazetidin-3-yl)methoxy)-5-cyclopropyl-2-fluoro-N-(methylsulfonyl)benzamide] | 2.54 | – | –
0.0093 | 0.0036 | CS(=O)(=O)NC(=O)c1cc(Cl)c(OCC2CC3C4CCC(C4)C3C2)cc1F (centres unmarked) [Example 445] | 0.743 | – | –
0.0016 | 0.0031 | O=C(NS(=O)(=O)C1CC1)c1cc(C2CC2)c(OCC2(C(F)(F)F)CCCCC2)cc1F [Example 446, 5-cyclopropyl-N-(cyclopropylsulfonyl)-2-fluoro-4-((1-(trifluoromethyl)-cyclohexyl)methoxy)benzamide] | 0.16 | – | –

Structure (SMILES) | IC50 (hNav1.7 [1]; [3]) [µM] | IC50 (hNav1.7 [2]; [4]) [µM] | IC50 (hNav1.5) [µM] | IC50 (hNav1.7 [2]) [µM] | IC50 (hNav1.7 [1]) [µM]
O=C(NS(=O)(=O)N1CCC1)c1cc(C2CC2)c(O[C@H]2C3CC4CC2C[C@](Cl)(C4)C3)cc1F | 0.009 | 0.03 | 21.6 | – | –
COC(=O)C12CC3C[C@H](C1)C(Oc1cc(F)c(C(=O)NS(C)(=O)=O)cc1Cl)[C@@H](C3)C2 (stereo partly drawn) [Example 353, (1s,3R,4r,5S,7s)-methyl 4-(2-chloro-5-fluoro-4-((methyl-sulfonyl)carbamoyl)-phenoxy)adamantane-1-carboxylate] | 0.13 | 0.24 | – | – | –
